# Results: patent US5430043A, “Platelet aggregation inhibitors” (G. D. Searle & Co., priority 1993, dated 1995)
# Structures can show the parent of a compound that is named as a salt.
# Key:
# [1] = system: Platelet aggregation in PRP (dog); assay: In-Vitro Platelet Aggregation in PRP (Dog), collagen-induced; format: cell-based; conditions: collagen 33 μg/ml final
# Description: In-Vitro Platelet Aggregation in PRP--(Dog)
# Healthy male or female dogs were fasted for 8 hours prior to drawing blood; then 60 ml whole blood was collected using a butterfly needle and 60 cc plastic syringe with 6 ml of 0,129 M buffered sodium citrate (3.8%) (drawn from a minimum of 3 dogs and blood was pooled). The syringe was rotated carefully as blood was drawn to mix the citrate. Platelet-rich plasma (PRP) was prepared by centrifugation at 975×g for 3.17 minutes at room temperature, allowing the centrifuge to coast to a stop without braking. The PRP was removed from the blood with a plastic pipette and placed in a plastic capped 50 ml Corning conical sterile centrifuge tube which was held at room temperature. Platelet poor plasma (PPP) was prepared by centrifuging the remaining blood at 2000×g for 15 minutes at room temperature allowing the centrifuge to coast to a stop without braking. The platelet count in the PRP was routinely 2-4×10^8 platelets per ml. 400 μl of the PRP preparation and 50 μl of the compound to be tested or saline were preincubated for 2 minutes at 37° C. in a BioData aggregometer (BioData, Horsham, Pa.). 50 μl of collagen (diluted 1:3 with 5% dextrose and water solution, 33 μg/ml final concentration, equine tendon, Chronolog, Havertown, Pa.) was added to the cuvettes and the aggregation was monitored for 3 minutes. All compounds are tested in duplicate. Results are calculated as follows: [formula]
# The assay results for the compounds of the present invention and their median inhibitory concentrations (IC50) are recorded in Tables I-III.
# [2] = system: collagen-induced platelet aggregation; assay: Oral (IG) administration of compound (ester) to dogs; inhibition of collagen-induced platelet aggregation; format: in vivo; conditions: dog
# Description: Oral Administration of Compound
# Dogs (n=2) were weighed and two control blood samples (2×2 ml) were drawn via venipuncture from the cephalic vein. Blood was centrifuged at 266×g for 6 minutes to prepare PRP. Percent aggregation prior to compound administration (baseline) was established by adding 50 μl of collagen to 450 μl of PRP and measuring aggregation for 4 minutes. Compound (in the ester form) was administered orally (single dose) by gelatin capsule. Blood samples (2×2 ml) were drawn at selected time intervals after dosing. Inhibition of collagen-induced platelet aggregation was determined by comparing aggregation responses in the samples containing compound with the responses of samples before compound administration (baseline). The remaining blood was centrifuged for 2 minutes at 12,000 ×g to prepare PPP for determination of concentration of compound in the plasma samples by bioassay (see below).
# [3] = system: collagen-induced platelet aggregation; assay: I.V. compound (acid) administration to dogs; inhibition of collagen-induced platelet aggregation; format: in vivo; conditions: dog, 1 mg/kg
# Description: I.V. Compound Administration
# Dogs were placed in a dog sling. Two control blood samples (2×2 ml) were collected and PRP was prepared and percent aggregation was determined to establish a baseline as stated above. Compound (in the acid form) in 4 ml of saline/water (50:50) was injected into the cephalic vein over one minute with a syringe connected to a 23 g butterfly infusion set. Blood samples (2×2 ml) were drawn at 5 minute intervals after dosing for the first 15 minutes, 15 minute intervals until 60 minutes, 30 minute intervals until 2 hours, hourly until ~6 hours, again at 24 hours or until baseline aggregation was reached. PRP was prepared for aggregation studies as previously described. PPP was prepared for determination of concentration of compound by bioassay (see below).
# [4] = Canis lupus familiaris, Platelet
compound,measurement,setting,value
"COC(=O)CC(CC(=O)O)NC(=O)CN1CCN(c2ccc(C(=N)N)cc2)C1=O (racemic) [Example 14, (±)Methylhydrogen3-[[[[1-[4-(aminoiminomethyl)phenyl]-4,5-dihydro-2(3H)-oxo-1H-imidazol-3-yl]methyl]carbonyl]amino]pentanedioate]",IC50,[1]; [4],180 nM
"C=CC(CC(=O)OCC)NC(=O)Cn1ccn(-c2ccc(C(=N)N)cc2)c1=O (stereo in doubt) [Example 11, Ethyl 3-[[[[1-[4-(aminoiminomethyl)phenyl]-2(3H)-oxo-1H-imidazol-3-yl]methyl]carbonyl]amino]pent-4(3S)-enoate trifluoroacetate]",Hours duration (IG - ester),[2]; 5 mg/kg,24 h
same,% inhibition (IG - ester),"[2]; 5 mg/kg, 24 hr",35%
same,Max % inhibition (IG - ester),"[2]; 5 mg/kg, max @ 3 hours",71%
"C=CC(CC(=O)O)NC(=O)Cn1ccn(-c2ccc(C(=N)N)cc2)c1=O (stereo in doubt) [Example 12, 3-[[[[1-[4-(aminoiminomethyl)phenyl]-2(3H)-oxo-1H-imidazol-3-yl]methyl]carbonyl]amino]-4(3S)-pentenoic acid trifluoroacetate]",Hours duration (IV - acid),[3],6 h
same,% inhibition (IV - acid),[3]; 6 hr,54%
same,IC50,[1]; [4],650 nM
"N=C(N)c1ccc(-n2ccn(CC(=O)NCCC(=O)O)c2=O)cc1 [Example 3, 3-[[[[1-[4-(aminoiminomethyl)phenyl]-2(3H)-oxo-1H-imidazol-3-yl]methyl]carbonyl]amino]propanoic acid, trifluoroacetate]",IC50,[1]; [4],2000 nM
"N=C(N)c1ccc(-n2ccn(CC(=O)NCCCC(=O)O)c2=O)cc1 [Example 4, 4-[[[[1-[4-(aminoiminomethyl)phenyl]-2(3H)-oxo-1H-imidazol-3-yl]methyl]carbonyl]amino]butanoic acid trifluoroacetate]",inhibition at 1 µM,[1]; [4],0%
"N=C(N)c1ccc(N2CCN(CC(=O)NCCC(=O)O)C2=O)cc1 [Example 5, 3-[[[[1-[4-(aminoiminomethyl)phenyl]-4,5-dihydro-2(3H]-oxo-1H-imidazol-3-yl]methyl]carbonyl]amino]propanoic acid, trifluoroacetate]",Hours duration (IV - acid),[3],24 h
same,% inhibition (IV - acid),[3]; 24 hr,31%
same,IC50,[1]; [4],190 nM
"N=C(N)c1ccc(N2CCN(CC(=O)NCCCC(=O)O)C2=O)cc1 [Example 7, 4-[[[[1-[4-(Aminoiminomethyl)phenyl]-4,5-dihydro-2(3H)-oxo-1H-imidazol-3-yl]methyl]carbonyl]amino]butanoic acid]",IC50,[1]; [4],1100 nM
"CCOC(=O)CCNC(=O)CN1CCN(c2ccc(C(=N)N)cc2)C1=O [Example 8, Ethyl 3-[[[[1-[4-(aminoiminomethyl)phenyl]-4,5-dihydro-2(3H)-oxo-1H-imidazol-3-yl]methyl]carbonyl]amino]propanoate]",Hours duration (IG - ester),[2]; 2.5 mg/kg,3.1 h
same,% inhibition (IG - ester),"[2]; 2.5 mg/kg, 3.1 hr",16%
"CCOC(=O)CC(C)NC(=O)Cn1ccn(-c2ccc(C(=N)N)cc2)c1=O (stereo not shown) [Example 9, Ethyl 3-[[[[1-[4-(aminoiminomethyl)phenyl]-2(3H)-oxo-1H-imidazol-3-yl]methyl]carbonyl]amino]butanoate trifluoroacetate]",Hours duration (IG - ester),[2]; 10 mg/kg,4.5 h
same,% inhibition (IG - ester),"[2]; 10 mg/kg, 4.5 hr",33%
"CC(CC(=O)O)NC(=O)Cn1ccn(-c2ccc(C(=N)N)cc2)c1=O (stereo not shown) [Example 10, 3-[[[1-[4-(aminoiminomethyl)phenyl]-2(3H)-oxo-1H-imidazol-3-yl]methyl]carbonyl]amino]butanoic acid trifluoroacetate]",IC50,[1]; [4],620 nM
"COC(=O)CC(CC(=O)OC)NC(=O)CN1CCN(c2ccc(C(=N)N)cc2)C1=O [Example 13, Dimethyl 3-[[[[1-[4-(aminoiminomethyl)phenyl]-4,5-dihydro-2(3H)-oxo-1H-imidazol-3-yl]methyl]carbonyl]amino]pentanedioate]",Hours duration (IG - ester),[2]; 5 mg/kg,24 h
same,% inhibition (IG - ester),"[2]; 5 mg/kg, 24 hr",14%
same,Max % inhibition (IG - ester),"[2]; 5 mg/kg, max @ 6 hours",63%
"N=C(N)c1ccc(-n2ccn(CCC(=O)NCCC(=O)O)c2=O)cc1 [Example 16, 3-[[[[1-[4-(aminoiminomethyl)phenyl]-2(3H)-oxo-1H-imidazol-3-yl]ethyl]carbonyl]amino]propanoic acid]",IC50,[1]; [4],340 nM
"CCOC(=O)CC(NC(=O)Cn1ccn(-c2ccc(C(=N)N)cc2)c1=O)c1ccoc1 (stereo not drawn) [Example 19, Ethyl β-[[[[1-[4-(aminoiminomethyl)phenyl]-2(3H)-oxo-1H-imidazol-3-yl]-methyl]carbonyl]amino]-3-furanpropanoate trifluoroacetate]",Hours duration (IG - ester),[2]; 10 mg/kg,24 h
same,% inhibition (IG - ester),"[2]; 10 mg/kg, 24 hr",28%
same,Max % inhibition (IG - ester),"[2]; 10 mg/kg, max @ 6 hours",85%
"N=C(N)c1ccc(-n2ccn(CC(=O)NC(CC(=O)O)c3ccoc3)c2=O)cc1 (stereo not drawn) [Example 20, β-[[[[1-[4-(aminoiminomethyl)phenyl]-2(3H)-oxo-1H-imidazol-3-yl]methyl]carbonyl]amino]-3-furanpropanoic acid trifluoroacetate]",IC50,[1]; [4],700 nM
"CCOC(=O)CC(NC(=O)Cn1ccn(-c2ccc(C(=N)N)cc2)c1=O)c1cccnc1 (stereo not drawn) [Example 21, Ethyl β-[[[[1-[4-(aminoiminomethyl)phenyl]-2(3H)-oxo-1H-imidazol-3-yl]methyl]carbonyl]amino]-3-pyridinepropanoate]",Hours duration (IG - ester),[2]; 10 mg/kg,24 h
same,% inhibition (IG - ester),"[2]; 10 mg/kg, 24 hr",43%
"N=C(N)c1ccc(-n2ccn(CC(=O)NC(CC(=O)O)c3cccnc3)c2=O)cc1 (stereo not drawn) [Example 22, β-[[[[1-[4-(aminoiminomethyl)phenyl]-2(3H)-oxo-1H-imidazol-3-yl]methyl]carbonyl]amino]-3-pyridinepropanoic acid]",Hours duration (IV - acid),[3],24 h
same,% inhibition (IV - acid),[3]; 24 hr,40%
same,IC50,[1]; [4],170 nM
"CCOC(=O)C[C@H](NC(=O)CN1CCN(c2ccc(C(=N)N)cc2)C1=O)c1cccnc1 [Example 23, Ethyl β-[[[[1-[4-(aminoiminomethyl]phenyl]-4,5-dihydro-2(3H)-oxo-1H-imidazol-3-yl]methyl]carbonyl]amino]-3(S)-pyridinepropanoate]",Hours duration (IG - ester),[2]; 5 mg/kg,24 h
same,% inhibition (IG - ester),"[2]; 5 mg/kg, 24 hr",88%
"N=C(N)c1ccc(N2CCCN(CC(=O)NCCC(=O)O)C2=O)cc1 [Example 26, 3-[[[[1-[4-(Aminoiminomethyl)phenyl]-1,4,5,6-tetrahydro-2(3H)-oxopyrimidin-3-yl]methyl]carbonyl]amino]propanoic acid, trifluoroacetate]",inhibition at 1 µM,[1]; [4],18%
"β-[[[[4-(aminoiminomethyl)phenyl]-4,5-dihydro-2(3H)-oxo-1H-imidazol-3- yl]methyl]carbonyl]amino]-3-pyridinepropanoic acid [Example 24]",Hours duration (IV - acid),[3],27 h
same,% inhibition (IV - acid),[3]; 27 hr,98%
same,IC50,[1],80 nM
